This is an account of results in patent US8541596B2, “Inhibitors” (Probiodrug AG, priority 2010, dated 2013).

hQC, sequence (Q16769 29-361): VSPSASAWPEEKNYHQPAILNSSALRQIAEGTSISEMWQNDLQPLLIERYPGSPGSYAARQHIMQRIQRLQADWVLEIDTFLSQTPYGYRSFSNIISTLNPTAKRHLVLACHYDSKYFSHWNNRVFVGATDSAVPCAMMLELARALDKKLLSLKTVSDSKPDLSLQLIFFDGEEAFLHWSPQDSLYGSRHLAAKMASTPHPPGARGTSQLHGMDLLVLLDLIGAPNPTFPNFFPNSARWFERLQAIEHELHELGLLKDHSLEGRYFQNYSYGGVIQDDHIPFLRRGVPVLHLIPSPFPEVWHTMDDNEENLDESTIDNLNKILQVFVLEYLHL

For the test, the target named is hQC (Homo sapiens (Human), UniProt Q16769). The test can be described thus: QC inhibitor assay (fluorometric/spectrophotometric QC activity assay with inhibitor added). The note with it: bound. The class given is biochemical. On the procedure:
All measurements were performed with a BioAssay Reader HTS-7000Plus for microplates (Perkin Elmer) at 30° C. QC activity was evaluated fluorometrically using H-Gln-βNA. The samples consisted of 0.2 mM fluorogenic substrate, 0.25 U pyroglutamyl aminopeptidase (Unizyme, Høsholm, Denmark) in 0.2 M Tris/HCl, pH 8.0 containing 20 mM EDTA and an appropriately diluted aliquot of QC in a final volume of 250 μl. Excitation/emission wavelengths were 320/410 nm. The assay reactions were initiated by addition of glutaminyl cyclase. QC activity was determined from a standard curve of /3-naphthylamine under assay conditions. One unit is defined as the amount of QC catalyzing the formation of 1 μmol pGlu-βNA from H-Gln-/3NA per minute under the described conditions.
In a second fluorometric assay, QC was activity determined using H-Gln-AMC as substrate. Reactions were carried out at 30° C. utilizing the NOVOStar reader for microplates (BMG labtechnologies). The samples consisted of varying concentrations of the fluorogenic substrate, 0.1 U pyroglutamyl aminopeptidase (Qiagen) in 0.05 M Tris/HCl, pH 8.0 containing 5 mM EDTA and an appropriately diluted aliquot of QC in a final volume of 250 μl. Excitation/emission wavelengths were 380/460 nm. The assay reactions were initiated by addition of glutaminyl cyclase. QC activity was determined from a standard curve of 7-amino-4-methylcoumarin under assay conditions. The kinetic data were evaluated using GraFit software.
This novel assay was used to determine the kinetic parameters for most of the QC substrates. […] Samples consisted of the respective QC substrate, 0.3 mM NADH, 14 mM a-Ketoglutaric acid and 30 U/ml glutamate dehydrogenase in a final volume of 250 μl. Reactions were started by addition of QC and persued by monitoring of the decrease in absorbance at 340 nm for 8-15 min.
The initial velocities were evaluated and the enzymatic activity was determined from a standard curve of ammonia under assay conditions. All samples were measured at 30° C., using either the […]uor Plus or the Sunrise (both from TECAN) reader for microplates. Kinetic data was evaluated using GraFit software.
For inhibitor testing, the sample composition was the same as described above, except for the putative inhibitory compound added. For a rapid test of QC-inhibition, samples contained 4 mM of the respective inhibitor and a substrate concentration at 1 KM. For detailed investigations of the inhibition and determination of K,-values, influence of the inhibitor on the auxiliary enzymes was investigated first. […] The inhibitory constant was evaluated by fitting the set of progress curves to the general equation for competitive inhibition using GraFit software.
`COc1ccc(CN(CCCc2ccccc2)c2ccc3nc[nH]c3c2)cc1` [Example 89, N-(4-Methoxybenzyl)-N-(3-phenylpropyl)-3H-benzo[d]imidazol-5-amine]: the IC50 – broadly, the concentration that inhibits the measured activity by half – is less than 10 µM.

The compound `COc1ccc(CN(Cc2ccccc2)c2ccc3nc[nH]c3c2)cc1` [Example 86, N-(4-Methoxybenzyl)-N-benzyl-3H-benzo[d]imidazol-5-amine] displayed an IC50 of less than 10 µM.

`CCCCN(Cc1ccc(SC)cc1)c1ccc2[nH]cnc2c1` [Example 83, N-(4-(Methylthio)benzyl)-N-butyl-1H-benzo[d]imidazol-5-amine] showed an IC50 of less than 10 µM.

Compound `CSc1ccc(CN(Cc2cc(F)cc(F)c2)c2ccc3[nH]cnc3c2)cc1` [Example 59, N-(3,5-Difluorobenzyl)-N-(4-(methylthio)benzyl)-1H-benzo[d]imidazol-5-amine] returned a half-inhibitory concentration (IC50) of less than 10 µM.

Compound `Cc1ccc2cc(CN(Cc3ccc4nc(C)ccc4c3)c3ccc4[nH]cnc4c3)ccc2n1` [Example 37, N,N-Bis((2-methylquinolin-6-yl)methyl)-1H-benzo[d]imidazol-5-amine] registered an IC50 of less than 10 µM.

In turn, `Clc1ccc2scc(CNc3ccc4[nH]cnc4c3)c2c1` [Example 49, N-((5-Chlorobenzo[b]thiophen-3-yl)methyl)-1H-benzo[d]imidazol-5-amine] gave an IC50 of less than 10 µM.

Compound `Brc1ccc(CN(Cc2ccc(Br)cc2)c2ccc3[nH]cnc3c2)cc1` [Example 27, N,N-Bis(4-bromobenzyl)-1H-benzo[d]imidazol-5-amine] returned an IC50 of less than 10 µM.

`CCc1ccc(CN(Cc2ccc(SC)cc2)c2ccc3[nH]cnc3c2)cc1` [Example 69, N-(4-(Methylthio)benzyl)-N-(4-ethylbenzyl)-1H-benzo[d]imidazol-5-amine] registered an IC50 of less than 10 µM.

Compound `c1ccc2sc(CN(Cc3nc4ccccc4s3)c3ccc4[nH]cnc4c3)nc2c1` [Example 34, N,N-Bis((benzo[d]thiazol-2-yl)methyl)-1H-benzo[d]imidazol-5-amine] came in with an IC50 of less than 10 µM.

In turn, `c1ccc(CN(Cc2ccccc2)c2ccc3[nH]cnc3c2)cc1` [Example 10, N,N-Dibenzyl-1H-benzo[d]imidazol-5-amine] yielded an IC50 of less than 10 µM.

Consider `CCc1ccc(CN(Cc2cc(F)c(F)c(F)c2)c2ccc3[nH]cnc3c2)cc1` [Example 71, N-(3,4,5-Trifluorobenzyl)-N-(4-ethylbenzyl)-1H-benzo[d]imidazol-5-amine], for which the IC50 is less than 10 µM.

In turn, `N#Cc1ccc(CN(Cc2ccc(C#N)cc2)c2ccc3[nH]cnc3c2)cc1` [Example 19, N,N-Bis(4-cyanobenzyl)-1H-benzo[d]imidazol-5-amine] came in with an IC50 of less than 10 µM.

For `CSc1ccc(CNc2ccc3[nH]cnc3c2)cc1` [Example 11, N-(4-(Methylthio)benzyl)-1H-benzo[d]imidazol-5-amine], the IC50 is less than 10 µM.

In the case of `CSc1ccc(CN(Cc2cc(F)c(F)c(F)c2)c2ccc3[nH]cnc3c2)cc1` [Example 60, N-(3,4,5-Trifluorobenzyl)-N-(4-(methylthio)benzyl)-1H-benzo[d]imidazol-5-amine], the IC50 is less than 10 µM.

Regarding `Cc1ccc(CN(Cc2ccc(N(C)C)cc2)c2ccc3[nH]cnc3c2)cc1` [Example 78, N-(4-(Dimethylamino)benzyl)-N-(4-methylbenzyl)-1H-benzo[d]imidazol-5-amine], the IC50 is less than 10 µM.

`CSc1ccc(CN(Cc2c(F)c(F)c(C)c(F)c2F)c2ccc3[nH]cnc3c2)cc1` [Example 62, N-(2,3,5,6-Tetrafluoro-4-methylbenzyl)-N-(4-(methylthio)benzyl)-1H-benzo[d]imidazol-5-amine] yielded a 50% inhibitory concentration (IC50) of less than 10 µM.

The compound `COc1ccc(CN(Cc2ccc3nsnc3c2)c2ccc3[nH]cnc3c2)cc1` [Example 76, N-(4-Methoxybenzyl)-N-((benzo[c][1,2,5]thiadiazol-6-yl)methyl)-1H-benzo[d]imidazol-5-amine] showed an IC50 of less than 10 µM.

For `Cc1c(F)c(F)c(CNc2ccc3[nH]cnc3c2)c(F)c1F` [Example 44, N-(2,3,5,6-Tetrafluoro-4-methylbenzyl)-1H-benzo[d]imidazol-5-amine], the IC50 is less than 10 µM.

Turning to `CSc1ccc(CN(Cc2nc3ccccc3s2)c2ccc3[nH]cnc3c2)cc1` [Example 66, N-(4-(Methylthio)benzyl)-N-((benzo[d]thiazol-2-yl)methyl)-1H-benzo[d]imidazol-5-amine], the IC50 was less than 10 µM.

Turning to `CN(C)c1ccc(CN(Cc2ccc3nsnc3c2)c2ccc3[nH]cnc3c2)cc1` [Example 81, N-(4-(Dimethylamino)benzyl)-N-((benzo[c][1,2,5]thiadiazol-5-yl)methyl)-1H-benzo[d]imidazol-5-amine], the IC50 was less than 10 µM.

In turn, `CCc1ccc(CN(Cc2ccc(C#N)cc2)c2ccc3[nH]cnc3c2)cc1` [Example 72, N-(4-Cyanobenzyl)-N-(4-ethylbenzyl)-1H-benzo[d]imidazol-5-amine] returned an IC50 of less than 10 µM.

`CCc1ccc(CN(Cc2nc3ccccc3s2)c2ccc3[nH]cnc3c2)cc1` [Example 74, N-(4-Ethylbenzyl)-N-((benzo[d]thiazol-2-yl)methyl)-1H-benzo[d]imidazol-5-amine] gave a half-maximal inhibitory concentration (IC50) of less than 10 µM.
